One data set concerns the target T1, NUAK1 (Homo sapiens, UniProt O60285).
T1 construct: purchased
T1 sequence (O60285 1-661): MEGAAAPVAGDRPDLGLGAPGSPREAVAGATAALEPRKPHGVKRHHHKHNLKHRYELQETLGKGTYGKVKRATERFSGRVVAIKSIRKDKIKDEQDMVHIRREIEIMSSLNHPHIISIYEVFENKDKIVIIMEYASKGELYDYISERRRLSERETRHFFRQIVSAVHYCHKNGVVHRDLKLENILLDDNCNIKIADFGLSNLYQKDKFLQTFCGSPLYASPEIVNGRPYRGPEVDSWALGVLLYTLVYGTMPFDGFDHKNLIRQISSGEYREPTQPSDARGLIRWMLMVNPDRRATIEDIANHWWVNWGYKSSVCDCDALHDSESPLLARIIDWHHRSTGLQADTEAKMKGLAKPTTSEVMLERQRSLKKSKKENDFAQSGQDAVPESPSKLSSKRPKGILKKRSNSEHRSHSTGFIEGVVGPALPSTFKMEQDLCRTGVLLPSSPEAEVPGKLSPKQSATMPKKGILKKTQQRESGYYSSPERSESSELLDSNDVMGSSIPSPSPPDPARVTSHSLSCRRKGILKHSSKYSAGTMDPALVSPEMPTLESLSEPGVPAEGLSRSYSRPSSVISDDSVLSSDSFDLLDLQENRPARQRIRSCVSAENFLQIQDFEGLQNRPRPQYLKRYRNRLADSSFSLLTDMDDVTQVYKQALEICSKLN
Nature of the data set: filter binding assay of NUAK1 inhibition. It counts as biochemical. The conditions noted are these: for IC50: derived from % inhibition at 1 μM; for remaining activity at 1 µM: read-out: residual kinase activity NUAK1. The procedure:
(§1) All kinase assays were carried out using the Multidrop 384 from Thermo-Fisher at room temperature in a total assay volume of 25.5 μl. 15 μl of an enzyme mix comprising enzyme and substrate in buffer are added to the test batch comprising either 0.5 μl of test substance, DMSO control or empty container. Test substances are pre-incubated in the presence of the enzyme and substrate for 5 minutes before the reaction is initiated by addition of 10 μl of ATP (concentration kinase-dependent of […]). The reaction is terminated by addition of 5 μl of orthophosphoric acid (50 mM). The test containers are then transferred onto P81 Unifilter plates by means of a “Packard Harvester” and dried in air. The dry Unifilter plates are sealed after the addition of MicroScint O, and the radioactivity is determined in a Packard Topcount NXT.
NUAK1 (5-20 mU diluted in 50 mM Tris pH 7.5, 0.1 mM EGTA, 0.1% β-mercaptoethanol, 1 mg/ml of BSA) is tested against ALNRTSSDSALHRRR as substrate. The final volume of 25.5 μl contains 50 mM Tris pH 7.5, 0.1 mM EGTA, 0.3 mM ALNRTSSDSALHRRR, 10 mM magnesium acetate and 0.02 mM [^33P-γ-ATP] (50-1000 cpm/pmole) and is incubated at room temperature for 30 min. Tests are terminated by the addition of 5 μl of a 0.5 M (3%) orthophosphoric acid soln. and then transferred onto P81 Unifilter plates and washed with 50 mM orthophosphoric acid buffer.

In data set [1] the target is T2, MAPK8 (Homo sapiens, UniProt P45983). Nature of the data set: filter binding kinase assay (second MAPK8 line). It counts as biochemical. The conditions noted are these: read-out: residual kinase activity MAPK8. The procedure: as §1
Target sequence in this assay (P45983 whole entry): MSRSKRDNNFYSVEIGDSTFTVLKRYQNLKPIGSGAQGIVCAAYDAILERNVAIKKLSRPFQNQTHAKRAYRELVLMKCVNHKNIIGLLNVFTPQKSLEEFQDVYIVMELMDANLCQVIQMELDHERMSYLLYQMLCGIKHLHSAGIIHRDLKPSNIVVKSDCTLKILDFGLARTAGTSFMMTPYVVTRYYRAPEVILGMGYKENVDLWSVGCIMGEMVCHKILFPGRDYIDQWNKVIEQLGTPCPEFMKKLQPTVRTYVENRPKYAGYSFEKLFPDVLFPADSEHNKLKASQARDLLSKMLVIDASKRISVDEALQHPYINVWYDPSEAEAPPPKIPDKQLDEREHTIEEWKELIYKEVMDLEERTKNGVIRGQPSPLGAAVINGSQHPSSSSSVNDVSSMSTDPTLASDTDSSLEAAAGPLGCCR
The target of data set [2] is T2, MAPK8. In words: filter binding kinase assay. It counts as biochemical. Set-up: purchased. The conditions noted are these: derived from % inhibition at 1 μM; first MAPK8 line. The procedure: as §1
Target sequence in this assay (P45983 whole entry, species assumed): as the sequence (P45983 whole entry) above

This note sets out measurements from patent US8703961B2, “Thiazole derivatives for the treatment of diseases such as cancer” (Merck Patent GmbH, priority 2009, dated 2014).

As a reminder, the IC50 is the concentration at which inhibition is half-maximal. On to `Nc1ncsc1C#Cc1cnc2[nH]ccc2c1` [Compound A22, 5-(1H-pyrrolo[2,3-b]pyridin-5-ylethynyl)thiazol-4-ylamine], for which, on NUAK1, the IC50 was 10 to 1000 nM and the remaining activity at 1 µM stood at 16%. Further, the remaining activity at 1 µM at MAPK8 [1] is 34%.

At MAPK8 [2], `CC(C)(C)OC(=O)Nc1ncsc1C#CCN1C(=O)c2ccccc2C1=O` [Compound A26, tert-butyl{5-[3-(1,3-dioxo-1,3-dihydroisoindol-2-yl)prop-1-ynyl]-thiazol-4-yl}carbamate] yielded an IC50 of 10000 to 100000 nM. In addition, at NUAK1, the 50% inhibitory concentration (IC50) is 10 to 1000 nM and the remaining activity at 1 µM turned out to be 24%.

`Nc1ncsc1C#Cc1cccc(O)c1` [Compound A27, 3-(4-aminothiazol-5-ylethynyl)phenol] yielded an IC50 on MAPK8 [2] of 1000 to 10000 nM. For the same molecule, on NUAK1, the IC50 is 10 to 1000 nM and the remaining activity at 1 µM was found to be 49%.

Consider `CC(C)(C)OC(=O)Nc1nc(-c2ccncc2)sc1C#CCN1CCOCC1` [Compound A25, tert-butyl[5-(3-morpholin-4-ylprop-1-ynyl)-2-pyridin-4-ylthiazol-4-yl]-carbamate], for which the IC50 at MAPK8 [2] is above 1000 nM; at NUAK1, 10000 to 100000 nM.

Broadly, the melting point is the temperature of the solid-liquid transition. Regarding `c1ccc(Cc2c[nH]c3ncsc23)cc1` [Compound A7, 6-benzyl-4H-pyrrolo[2,3-d]thiazole], the melting point was in the range of 133 to 135 °C. At MAPK8 [2], this molecule yielded an IC50 of 1000 to 10000 nM. Further, on NUAK1, the IC50 is 10 to 1000 nM and the remaining activity at 1 µM came out at 27%.
